According to publication PMC10444862, “Using macromolecular electron densities to improve the enrichment of active compounds in virtual screening” (Communications Chemistry, 2023):

Target: SARS-COV-2 3CLpro (having a P132H mutation, 3CLpro^P132H) (Severe acute respiratory syndrome coronavirus 2, UniProt P0DTD1, P3395H)
Format: biochemical

Structure (SMILES) | Inhibition Rate ([Cpd.]=40 uM)
COc1ccc(/N=C(/Nc2ccc(OC)cc2)c2cccc3ccccc23)cc1 [E10, COc1ccc(/N=C(/Nc2ccc(OC)cc2)c2cccc3ccccc23)cc1] | < 0.5
CN(CCCN(Cc1cccn1Cc1ccc(Cl)cc1)C(=O)Nc1ccccc1)c1ccccc1 [E11, CN(CCCN(Cc1cccn1Cc1ccc(Cl)cc1)C(=O)Nc1ccccc1)c1ccccc1] | < 0.5
CCOc1ccc(N(Cc2nnc3n2CCCCC3)C(=O)Nc2ccc(C)cc2)cc1 [E12, CCOc1ccc(N(Cc2nnc3n2CCCCC3)C(=O)Nc2ccc(C)cc2)cc1] | < 0.5
CC(=O)N1CCc2c(sc3c2c(=O)n(Cc2ccccc2)c(=O)n3Cc2cccc(C)c2)C1 [E13, CC(=O)N1CCc2c(sc3c2c(=O)n(Cc2ccccc2)c(=O)n3Cc2cccc(C)c2)C1] | < 0.5
COc1cccc(-n2c(=O)c3c(C)c(C(=O)N(C)C)sc3n(Cc3cccc(F)c3)c2=O)c1 [E14, COc1cccc(-n2c(=O)c3c(C)c(C(=O)N(C)C)sc3n(Cc3cccc(F)c3)c2=O)c1] | < 0.5
CCN(CC)C(=O)c1sc2c(c1C)c(=O)n(-c1ccccc1)c(=O)n2Cc1cccc(Cl)c1 [E15, CCN(CC)C(=O)c1sc2c(c1C)c(=O)n(-c1ccccc1)c(=O)n2Cc1cccc(Cl)c1] | < 0.5
CC(=O)N1CCc2c(sc3c2c(=O)n(-c2ccccc2C)c(=O)n3Cc2cc(C)ccc2C)C1 [E16, CC(=O)N1CCc2c(sc3c2c(=O)n(-c2ccccc2C)c(=O)n3Cc2cc(C)ccc2C)C1] | < 0.5
NC(=O)C[C@H]1CN(C(=O)COc2ncccn2)C[C@H]1OC(=O)c1ccccc1 [E17, NC(=O)C[C@H]1CN(C(=O)COc2ncccn2)C[C@H]1OC(=O)c1ccccc1] | < 0.5
CC(=O)c1ccc(C(=O)N2CCc3c([nH]c4ccccc34)C2c2ccccc2F)s1 (stereo not drawn) [E18, CC(=O)c1ccc(C(=O)N2CCc3c([nH]c4ccccc34)C2c2ccccc2F)s1] | < 0.5
COc1cccc(CN(CCc2c[nH]c3ccccc23)C(=O)c2ccnn2C)c1 [E19, COc1cccc(CN(CCc2c[nH]c3ccccc23)C(=O)c2ccnn2C)c1] | < 0.5
COCc1ccc(C(=O)N(Cc2ccccc2)Cc2nc3ccccc3c(=O)[nH]2)cc1 [E20, COCc1ccc(C(=O)N(Cc2ccccc2)Cc2nc3ccccc3c(=O)[nH]2)cc1] | < 0.5
O=C1[C@@H]2Cc3c([nH]c4ccccc34)C(c3cccc([N+](=O)[O-])c3)N2C(=O)CN1CC(O)c1ccccc1 (stereo partly drawn) [E21, O=C1[C@@H]2Cc3c([nH]c4ccccc34)C(c3cccc([N+](=O)[O-])c3)N2C(=O)CN1CC(O)c1ccccc1] | < 0.5
O=C(c1cc(=O)c2ccccc2o1)N1CCc2c([nH]c3ccccc23)C1c1ccccc1F (stereo not drawn) [E22, O=C(c1cc(=O)c2ccccc2o1)N1CCc2c([nH]c3ccccc23)C1c1ccccc1F] | < 0.5
O=C(CSc1nc(-c2ccccc2F)nc2c1cnn2-c1ccccc1)NC1CC1 [E23, O=C(CSc1nc(-c2ccccc2F)nc2c1cnn2-c1ccccc1)NC1CC1] | < 0.5
COc1ccc(N2C(=O)C3C(Cc4c[nH]c5ccccc45)NC4(C(=O)Nc5ccccc54)C3C2=O)cc1 (stereo not drawn) [E24, COc1ccc(N2C(=O)C3C(Cc4c[nH]c5ccccc45)NC4(C(=O)Nc5ccccc54)C3C2=O)cc1] | < 0.5
